Reference: US8470836B2, “Dipeptidyl peptidase-IV inhibiting compounds, methods of preparing the same, and pharmaceutical compositions containing the same as active agent” (LG Life Sciences, Ltd., priority 2007, dated 2013)
Structures can show the parent of a compound that is named as a salt.

Key:
Type in all cases: biochemical
[1] = molecular target: DPP-II (Homo sapiens (Human), UniProt Q9UHL4); assay: Measurement of DPP-II inhibitory activity (Gly-Pro-AFC); conditions: 100 μM Gly-Pro-AFC, 50 mM acetic acid pH 4.5, room temperature
[2] = molecular target: DPP-VIII (Homo sapiens (Human), UniProt Q6V1X1); assay: Measurement of DPP-VIII inhibitory activity (Gly-Pro-AFC); conditions: 100 μM Gly-Pro-AFC, 50 mM HEPES pH 7.5, room temperature
[3] = molecular target: DPP-IX (Homo sapiens (Human), UniProt Q86TI2); assay: Measurement of DPP-IX inhibitory activity (Gly-Pro-AFC); conditions: 100 μM Gly-Pro-AFC, 50 mM HEPES pH 7.5, room temperature
[4] = molecular target: Dipeptidyl peptidase-IV (DPP-IV) (Homo sapiens (Human), UniProt P27487); assay: Assay of DPP-IV inhibitory activity (fluorescent substrate Ac-Gly-Pro-AFC); conditions: DPP-IV 7.1 nM, 100 μM Ac-Gly-Pro-AFC, 25° C., 50 mM HEPES pH 7.4, 1 hour
Chain of Dipeptidyl peptidase-IV (DPP-IV) (P27487 whole entry): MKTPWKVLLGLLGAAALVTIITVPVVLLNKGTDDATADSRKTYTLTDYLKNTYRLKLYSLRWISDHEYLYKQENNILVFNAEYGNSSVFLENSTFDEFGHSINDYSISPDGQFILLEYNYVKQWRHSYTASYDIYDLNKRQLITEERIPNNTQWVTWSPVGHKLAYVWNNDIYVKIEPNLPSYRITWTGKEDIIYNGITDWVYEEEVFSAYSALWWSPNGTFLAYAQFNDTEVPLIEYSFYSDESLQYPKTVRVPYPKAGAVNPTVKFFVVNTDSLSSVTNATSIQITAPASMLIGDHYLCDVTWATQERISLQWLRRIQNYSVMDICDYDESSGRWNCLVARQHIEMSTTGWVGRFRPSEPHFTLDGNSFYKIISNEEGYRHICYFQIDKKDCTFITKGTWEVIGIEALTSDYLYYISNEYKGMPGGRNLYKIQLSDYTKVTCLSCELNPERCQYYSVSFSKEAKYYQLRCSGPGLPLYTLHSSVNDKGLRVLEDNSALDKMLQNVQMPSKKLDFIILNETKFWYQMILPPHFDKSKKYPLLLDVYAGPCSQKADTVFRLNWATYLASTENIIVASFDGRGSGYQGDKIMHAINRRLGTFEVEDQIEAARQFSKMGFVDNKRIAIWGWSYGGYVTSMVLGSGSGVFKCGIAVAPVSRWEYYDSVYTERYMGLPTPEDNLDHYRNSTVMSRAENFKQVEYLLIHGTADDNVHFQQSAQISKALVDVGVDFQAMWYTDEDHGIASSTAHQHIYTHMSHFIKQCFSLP

Chain of DPP-VIII (Q6V1X1 whole entry, species assumed): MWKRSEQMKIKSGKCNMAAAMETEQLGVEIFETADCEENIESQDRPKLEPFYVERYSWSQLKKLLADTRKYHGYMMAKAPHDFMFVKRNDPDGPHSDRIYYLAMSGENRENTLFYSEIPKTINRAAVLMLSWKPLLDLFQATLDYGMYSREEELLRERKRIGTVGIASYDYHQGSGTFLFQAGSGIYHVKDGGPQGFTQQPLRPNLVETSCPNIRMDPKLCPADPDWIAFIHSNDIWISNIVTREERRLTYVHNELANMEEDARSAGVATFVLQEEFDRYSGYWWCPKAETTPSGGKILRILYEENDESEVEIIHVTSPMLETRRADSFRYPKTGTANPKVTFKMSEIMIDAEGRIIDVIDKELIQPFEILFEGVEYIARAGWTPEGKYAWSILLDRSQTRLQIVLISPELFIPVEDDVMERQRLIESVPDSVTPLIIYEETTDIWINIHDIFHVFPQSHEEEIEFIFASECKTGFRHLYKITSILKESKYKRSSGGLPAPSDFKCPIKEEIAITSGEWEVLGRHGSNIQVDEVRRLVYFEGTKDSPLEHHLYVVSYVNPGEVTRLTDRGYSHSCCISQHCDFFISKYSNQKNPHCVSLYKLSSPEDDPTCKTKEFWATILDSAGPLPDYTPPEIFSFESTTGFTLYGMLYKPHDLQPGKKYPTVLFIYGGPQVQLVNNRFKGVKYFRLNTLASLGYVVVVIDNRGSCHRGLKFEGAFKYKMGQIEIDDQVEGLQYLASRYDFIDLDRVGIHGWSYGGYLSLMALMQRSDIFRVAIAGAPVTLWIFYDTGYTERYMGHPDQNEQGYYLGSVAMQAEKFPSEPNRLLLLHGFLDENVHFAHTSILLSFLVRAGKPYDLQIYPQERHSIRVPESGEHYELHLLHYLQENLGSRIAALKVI
Chain of DPP-IX (Q86TI2 whole entry, species assumed): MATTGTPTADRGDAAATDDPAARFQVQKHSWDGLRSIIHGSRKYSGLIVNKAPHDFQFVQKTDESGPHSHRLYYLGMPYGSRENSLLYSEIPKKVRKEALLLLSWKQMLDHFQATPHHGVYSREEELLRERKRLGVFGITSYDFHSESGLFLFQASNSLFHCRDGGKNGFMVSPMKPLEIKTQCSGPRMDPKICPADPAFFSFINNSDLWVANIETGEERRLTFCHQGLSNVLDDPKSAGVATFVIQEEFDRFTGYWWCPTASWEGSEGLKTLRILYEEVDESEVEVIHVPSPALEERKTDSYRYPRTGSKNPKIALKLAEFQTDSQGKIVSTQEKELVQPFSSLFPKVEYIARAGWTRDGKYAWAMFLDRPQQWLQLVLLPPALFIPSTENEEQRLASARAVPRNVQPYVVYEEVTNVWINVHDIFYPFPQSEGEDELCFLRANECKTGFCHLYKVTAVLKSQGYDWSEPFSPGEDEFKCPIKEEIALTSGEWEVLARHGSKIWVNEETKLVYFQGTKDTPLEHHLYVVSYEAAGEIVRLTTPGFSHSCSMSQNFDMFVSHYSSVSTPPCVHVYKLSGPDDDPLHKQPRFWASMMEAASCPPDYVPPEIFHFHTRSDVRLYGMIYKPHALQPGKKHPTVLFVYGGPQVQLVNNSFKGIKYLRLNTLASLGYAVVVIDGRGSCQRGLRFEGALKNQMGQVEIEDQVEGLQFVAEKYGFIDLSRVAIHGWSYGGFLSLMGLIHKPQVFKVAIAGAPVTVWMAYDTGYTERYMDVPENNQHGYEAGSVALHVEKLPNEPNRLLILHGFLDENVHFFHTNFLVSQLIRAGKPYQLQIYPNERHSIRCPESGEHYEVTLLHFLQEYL

SMILES	IC50 [1] [µM]	IC50 [2] [µM]	IC50 [3] [µM]	IC50 [4] [µM]
COCCc1nc2c(c(C(F)(F)F)n1)CCN(C(=O)C[C@H](N)CN1C(=O)CCC(F)(F)[C@@H]1O)C2 [Example 10, 1-{(S)-2-amino-4-[2-(2-methoxy-ethyl)-4-trifluoromethyl-5,8-dihydro-6H-pyrido[3,4-d]pyrimidin-7-yl]-4-oxo-butyl}-5,5-difluoro-6-hydroxy-piperidin-2-one hydrochloride]	> 400	> 400	> 210	
N[C@@H](CC(=O)N1CCc2c(nc(C(F)(F)F)nc2C(F)(F)F)C1)CN1C(=O)CCC(F)(F)[C@@H]1O [Example 2, 1-[(2S)-amino-4-(2,4-bis-trifluoromethyl-5,8-dihydro-6H-pyrido[3,4-d]pyrimidin-7-yl)-4-oxo-butyl]-5,5-difluoro-(6S)-hydroxy-piperidin-2-one hydrochloride]			> 400	
N[C@@H](CC(=O)N1CCc2c(nc(C3CCC3)nc2C(F)(F)F)C1)CN1C(=O)CCC(F)(F)C1O (stereo partly drawn) [Example 5, 1-[(S)-2-amino-4-(2-cyclobutyl-4-trifluoromethyl-5,8-dihydro-6H-pyrido[3,4-d]pyrimidin-7-yl)-4-oxo-butyl]-5,5-difluoro-6-hydroxy-piperidin-2-one hydrochloride]	> 161	> 400	> 400	
CC1CC(=O)N(C[C@@H](N)CC(=O)N2CCc3c(nc(C(C)(C)C)nc3C(F)(F)F)C2)C1=O (stereo partly drawn) [Example 22, 1-[(S)-2-amino-4-(2-t-butyl-4-trifluoromethyl-5,8-dihydro-6H-pyrido[3,4-d]pyrimidin-7-yl)-4-oxo-butyl]-3-methyl-pyrrolidine-2,6-dione hydrochloride]				> 2.5

Continued, values first:

IC50 [1] [µM]	IC50 [2] [µM]	IC50 [3] [µM]	IC50 [4] [µM]	SMILES
> 80	> 400	> 130		N[C@@H](CC(=O)N1CCc2c(nc(-c3ccco3)nc2C(F)(F)F)C1)CN1C(=O)CCC(F)(F)[C@@H]1O [Example 8, 1-[(S)-2-amino-4-(2-furan-2-yl-4-trifluoromethyl-5,8-dihydro-6H-pyrido[3,4-d]pyrimidin-7-yl)-butyl]-4-oxo-butyl]-5,5-difluoro-6-hydroxy-piperidin-2-one hydrochloride]
> 70	> 127	> 100		N[C@@H](CC(=O)N1CCc2c(nc(-c3ccncc3)nc2C(F)(F)F)C1)CN1C(=O)CCC(F)(F)[C@@H]1O [Example 6, 1-[(S)-2-amino-4-oxo-4-(2-pyridin-4-yl-4-trifluoromethyl-5,8-dihydro-6H-pyrido[3,4-d]pyrimidin-7-yl)-butyl]-5,5-difluoro-6-hydroxy-piperidin-2-one]
